# Source: patent US4386103A, “Dichloroamino acid derivatives useful as potent germicidal and fungicidal agents” (Merck & Co., Inc., priority 1981, dated 1983)
# How the values were obtained:
# Assay type in all cases: cell-based
# Salmonella typhimurium = test: Contact germicidal screen, Salmonella typhimurium ATCC No. 13311
# Method: (§1) The organisms used in the contact germicidal screen are all maintained as stock cultures on nutrient agar […] 4° C. They are transferred and biochemically diagnosed monthly. The five organisms used are: The media used are: […] Overnight cultures of the test organisms are grown in tryptose phosphate broth. After 15-16 hours, the cultures are centrifuged at […] for 15 minutes, and the supernatant replaced with fresh warm (37° C.) media. After two hours of incubation, the absorbance of the culture at 650 nm is determined and diluted with nutrient broth to 1×10^7 colony forming units per ml (using a previous determined standard curve: colony forming units/ml vs. absorbance at 650). The diluted cultures are maintained at 4°-8° C. throughout the screen. The compounds are weighed into sterile 100 ml volumetric flasks, and immediately before screening dissolved in one of the following buffers: 0.1 M NaOAc pH 4.6 or 0.1 M NaH2 PO4 pH 7.0. If solubility poses a problem, 10-30% methanol is used to effect solution. Two denaturing agents are also tested: […] Horse Serum restored with 100 ml distilled water and 10% Trition×100. When used, 2.5 ml of the denaturing agent is mixed with 2.5 ml of double strength test solution thirty minutes before the bacterial suspension is added. The screen is initiated when 0.2 ml of the bacterial suspension is added to 5.0 ml of the test solution contained in a sterile 25 ml glass stoppered flask. At intervals of 0.5, 2.5, 5.0, 10.0 and 15.0 minutes, a loopful of the inoculated test solution is subcultured into 5 ml of sterile nutrient broth and mixed with a vortex, the high dilution serving to stop the action of the compound. All of the subculture tubes are incubated at 37° C. and checked for signs of growth by turbidity at 1, 3, 5 and 7 days. The earliest subculture time at which no growth is present is considered the endpoint and is recorded as the sterilization time. An aliquot of 0.2 ml of the diluted culture is transferred to 5 ml of buffer to simulate 0.2 ml in 5 ml of test solution. (a) Purity: A loopful of the inoculated buffer is streaked onto nutrient agar to check colony morphology and lack of contaminants. (b) Viability: A loopful of the inoculated buffer is subcultured to 5 ml of nutrient broth as in the screen and incubated at 37° C. for 24 hours. (c) Dilution of the Test Solution: A loopful of the test solution is transferred to a 5 ml tube of nutrient broth, and a loopful of the inoculated buffer is transferred to the same tube of broth. […] (d) Purity of Organisms in the Test Solution: After the 15 minute subculture, a loopful of the inoculated test solution is streaked onto nutrient agar to insure that contamination has not occurred during the screen. (e) lack of Bactericidal Activity of Buffers and Other Solvents: Before a buffer or other solvent is used as a diluent, it is screened against the five organisms to insure that the buffer or solvent has no antibacterial activity itself.
# Pseudamonas aeruginosa = test: Contact germicidal screen, Pseudamonas aeruginosa ATCC No. 14502
# Method: as §1
# Candida albican = test: Contact fungicidal screen, Candida albican; conditions: 0.1M NaOAc pH 4.6
# Method: The organisms used in the Contact Fungicidal Screen are a dermatophyte, trychophyton mentagrophytes, frequently associated with athlete's foot; a yeast, Candida albican, causative agent of thrush and vaginitis; a phycomycete, Rhizopus oryzae, commonly known as black bread mold; an ascomycete, Aspergillus fumagatis, found in chicken droppings and causing lung infections; and another dermatophyte, Microsporum canis, which causes ringworm. These organisms are maintained as stock cultures at 4° C. on agar slants of the following composition: dextrose 2%, Neopeptone (Difco) 1%, agar 2%. Fluid medium of the same nutrient composition (without agar) was used to test the viability of the organisms after exposure to the fungicide. This medium is also known as Sabouraud's medium.
# The Candida albican is grown in Sabouraud's liquid medium at 25°-30° C. for three days. At the end of the incubation period the cell suspension is centrifuged at 200 G and washed with sterile physiological saline (0.85% NaCl). The density of the cell suspension is determined by counting in a hemacytometer. The suspension is stored a 4° C. until it is used, at which time it is diluted with sterile physiological saline to a density of 5×10^6 cells per ml.
# The compounds are weighed into heat sterilized 100 ml volumetric flasks and immediately before screening dissolved in 0.1 M NaOAc pH 4.6 buffer (test solutions).
# The Aspergillus, Candida, Microsporum and Rhizopus species are screened in a slightly different manner. Basically, the procedure for the Contact Germicidal Efficiency Screen is utilized. After the test solutions are made up, 5 ml aliquots are pipetted into heat sterilized 25 ml glass stoppered erlenmeyer flasks. The screen is initiated when 0.5 ml of the 5×10^6 cell (spore) per ml suspension is added to the flask containing 5 ml of the test solution. At intervals of 0.5, 2.5, 5.0, 10.0 and 15.0 minutes, a 4 mm loopful of the inoculated test solution is subcultured into 7 mL of sterile fluid Sabouraud's medium and mixed on a vortex, the high dilution serving to stop the action of the compound. The subculture tubes are incubated at 25°-30° C. for ten days with daily observation for mycelial growth. The earliest subculture time at which no growth is present is considered the endpoint and is recorded as the sterilization time.
# To insure the viability of the culture, a 0.5 ml aliquot of the 5×10^6 cells (spores) per ml suspension is transferred to 5 ml of the pH 4.6 buffer. A loopful of the inoculated buffer is then subcultured to 7 ml of fluid Sabouraud's medium and incubated at 25°-30° C. for ten days. To insure that the dilution of the test solution into the subculture medium does stop the action, a loopful of the test solution and a loopful of the inoculated buffer are transferred into the same subculture tube. This tube is also incubated at 25°-30° C. for ten days.
# [1] = 10.0+ PPM, 0.1M NaOAc pH 4.6, screened simultaneously with four other compounds
# [2] = 51.0 PPM, Triton X100 (10% solution):pH 4.6 buffer 1:1
# [3] = 51.0 PPM, horse serum:pH 4.6 buffer 1:1
# [4] = 300 PPM with 50% Horse Serum, 0.1M NaOAc pH 4.6
# [5] = 300 PPM with 50% Triton X100, 0.1M NaOAc pH 4.6
# [6] = 300 PPM, pH 4.6 buffer with 10% serum
# [7] = 300 PPM, pH 4.6 buffer with 20% serum
# [8] = 300 PPM, pH 4.6 buffer with 35% serum
# [9] = 304.6 PPM, horse serum:pH 4.6 buffer 1:1
# [10] = 304.8 PPM, Triton X100 (10% solution):pH 4.6 buffer 1:1
# [11] = 606.9 PPM, pH 4.6 buffer with 33% serum
# [12] = 899.25 PPM, pH 4.6 buffer with 25% serum
# [13] = 1000 PPM with 50% Horse Serum, 0.1M NaOAc pH 4.6
# [14] = 1001.2 PPM, horse serum:pH 4.6 buffer 1:1
# [15] = 1016.0 PPM, 0.1M NaH2PO4 pH 7.0
smiles,measurement,setting,value
CC(C)(CC(=O)O)N(Cl)Cl [(II)],Sterilization Time,"Salmonella typhimurium; 1.8 PPM, 0.1M NaOAc pH 4.6",5.0 min
same,Sterilization Time,"Salmonella typhimurium; 4.5 PPM, 0.1M NaOAc pH 4.6",2.5 min
same,Sterilization Time,Salmonella typhimurium; [1],0.5 min
same,Sterilization Time (summary),"Salmonella typhimurium; 10 PPM, 0.1M NaOAc pH 4.6",0.5 min
same,Sterilization Time,"Salmonella typhimurium; 10.0 PPM, 0.1M NaOAc pH 4.6",0.5 min
same,Sterilization Time,"Salmonella typhimurium; 12.2 PPM, 0.1M NaOAc pH 4.6",0.5 min
same,Sterilization Time,"Salmonella typhimurium; 32.1 PPM, 0.1M NaOAc pH 4.6",0.5 min
same,Sterilization Time,Salmonella typhimurium; [2],0.5 min
same,Sterilization Time,Salmonella typhimurium; [3],15 min
same,Sterilization Time,"Salmonella typhimurium; 71.7 PPM, 0.1M NaOAc pH 4.6",0.5 min
same,Sterilization Time (summary),"Salmonella typhimurium; 100 PPM, 0.1M NaOAc pH 4.6",0.5 min
same,Sterilization Time,"Salmonella typhimurium; 104.7 PPM, 0.1M NaOAc pH 4.6",0.5 min
same,Sterilization Time,"Salmonella typhimurium; 107.8 PPM, 0.1M NaH2PO4 pH 7.0",2.5 min
same,Sterilization Time,"Salmonella typhimurium; 298.9 PPM, 0.1M NaOAc pH 4.6",0.5 min
same,Sterilization Time (summary),Salmonella typhimurium; [4],2.5 min
same,Sterilization Time (summary),Salmonella typhimurium; [5],0.5 min
same,Sterilization Time,Salmonella typhimurium; [6],0.5 min
same,Sterilization Time,Salmonella typhimurium; [7],0.5 min
same,Sterilization Time,Salmonella typhimurium; [8],2.5 min
same,Sterilization Time,Salmonella typhimurium; [9],2.5 min
same,Sterilization Time,Salmonella typhimurium; [10],0.5 min
same,Sterilization Time,"Salmonella typhimurium; 316.6 PPM, 0.1M NaH2PO4 pH 7.0",2.5 min
same,Sterilization Time,Salmonella typhimurium; [11],0.5 min
same,Sterilization Time,Salmonella typhimurium; [12],0.5 min
same,Sterilization Time (summary),Salmonella typhimurium; [13],0.5 min
same,Sterilization Time (summary),"Salmonella typhimurium; 1000 PPM, 0.1M NaOAc pH 4.6",0.5 min
same,Sterilization Time,Salmonella typhimurium; [14],0.5 min
same,Sterilization Time,"Salmonella typhimurium; 1014.8 PPM, 0.1M NaOAc pH 4.6",0.5 min
same,Sterilization Time,Salmonella typhimurium; [15],0.5 min
same,Sterilization Time,"Pseudamonas aeruginosa; 1.8 PPM, 0.1M NaOAc pH 4.6",15 min
same,Sterilization Time,"Pseudamonas aeruginosa; 4.5 PPM, 0.1M NaOAc pH 4.6",5.0 min
same,Sterilization Time,Pseudamonas aeruginosa; [1],2.5 min
same,Sterilization Time (summary),"Pseudamonas aeruginosa; 10 PPM, 0.1M NaOAc pH 4.6",2.5 min
same,Sterilization Time,"Pseudamonas aeruginosa; 10.0 PPM, 0.1M NaOAc pH 4.6",2.5 min
same,Sterilization Time,"Pseudamonas aeruginosa; 12.2 PPM, 0.1M NaOAc pH 4.6",2.5 min
same,Sterilization Time,"Pseudamonas aeruginosa; 32.1 PPM, 0.1M NaOAc pH 4.6",2.5 min
same,Sterilization Time,Pseudamonas aeruginosa; [2],2.5 min
same,Sterilization Time,Pseudamonas aeruginosa; [3],15 min
same,Sterilization Time,"Pseudamonas aeruginosa; 71.7 PPM, 0.1M NaOAc pH 4.6",0.5 min
same,Sterilization Time (summary),"Pseudamonas aeruginosa; 100 PPM, 0.1M NaOAc pH 4.6",0.5 min
same,Sterilization Time,"Pseudamonas aeruginosa; 104.7 PPM, 0.1M NaOAc pH 4.6",0.5 min
same,Sterilization Time,"Pseudamonas aeruginosa; 107.8 PPM, 0.1M NaH2PO4 pH 7.0",15 min
same,Sterilization Time,"Pseudamonas aeruginosa; 298.9 PPM, 0.1M NaOAc pH 4.6",0.5 min
same,Sterilization Time (summary),Pseudamonas aeruginosa; [4],15 min
same,Sterilization Time (summary),Pseudamonas aeruginosa; [5],0.5 min
same,Sterilization Time,Pseudamonas aeruginosa; [6],0.5 min
same,Sterilization Time,Pseudamonas aeruginosa; [7],2.5 min
same,Sterilization Time,Pseudamonas aeruginosa; [8],10.0 min
same,Sterilization Time,Pseudamonas aeruginosa; [9],15 min
same,Sterilization Time,Pseudamonas aeruginosa; [10],0.5 min
same,Sterilization Time,"Pseudamonas aeruginosa; 316.6 PPM, 0.1M NaH2PO4 pH 7.0",5.0 min
same,Sterilization Time,Pseudamonas aeruginosa; [11],2.5 min
same,Sterilization Time,Pseudamonas aeruginosa; [12],0.5 min
same,Sterilization Time (summary),Pseudamonas aeruginosa; [13],2.5 min
same,Sterilization Time (summary),"Pseudamonas aeruginosa; 1000 PPM, 0.1M NaOAc pH 4.6",0.5 min
same,Sterilization Time,Pseudamonas aeruginosa; [14],2.5 min
same,Sterilization Time,"Pseudamonas aeruginosa; 1014.8 PPM, 0.1M NaOAc pH 4.6",0.5 min
same,Sterilization Time,Pseudamonas aeruginosa; [15],2.5 min
same,Sterilization Time,Candida albican; 10 PPM,15 min
same,Sterilization Time,Candida albican; 100 PPM,15 min
same,Sterilization Time,Candida albican; 1000 PPM,2.5 min
